Tests used:
[1] = test system: récepteur de l'oestradiol; assay: Relative binding affinity (A.R.L) for the estradiol receptor; settings: vis-à-vis du récepteur de l'oestradiol
Description: Dans cette optique, des composés tels que 7 et 8 sont préparés (9b). Ils portent des petits clusters en 17a-et couvrent une gamme de valeurs de PKR+ de -6 pour 7 à +3 pour 8.

[2] = target: T1, Récepteur de la progestérone (Homo sapiens, UniProt P06401); settings: photochemically activated, after 1H; cited from earlier work
T1 sequence (P06401 1-933): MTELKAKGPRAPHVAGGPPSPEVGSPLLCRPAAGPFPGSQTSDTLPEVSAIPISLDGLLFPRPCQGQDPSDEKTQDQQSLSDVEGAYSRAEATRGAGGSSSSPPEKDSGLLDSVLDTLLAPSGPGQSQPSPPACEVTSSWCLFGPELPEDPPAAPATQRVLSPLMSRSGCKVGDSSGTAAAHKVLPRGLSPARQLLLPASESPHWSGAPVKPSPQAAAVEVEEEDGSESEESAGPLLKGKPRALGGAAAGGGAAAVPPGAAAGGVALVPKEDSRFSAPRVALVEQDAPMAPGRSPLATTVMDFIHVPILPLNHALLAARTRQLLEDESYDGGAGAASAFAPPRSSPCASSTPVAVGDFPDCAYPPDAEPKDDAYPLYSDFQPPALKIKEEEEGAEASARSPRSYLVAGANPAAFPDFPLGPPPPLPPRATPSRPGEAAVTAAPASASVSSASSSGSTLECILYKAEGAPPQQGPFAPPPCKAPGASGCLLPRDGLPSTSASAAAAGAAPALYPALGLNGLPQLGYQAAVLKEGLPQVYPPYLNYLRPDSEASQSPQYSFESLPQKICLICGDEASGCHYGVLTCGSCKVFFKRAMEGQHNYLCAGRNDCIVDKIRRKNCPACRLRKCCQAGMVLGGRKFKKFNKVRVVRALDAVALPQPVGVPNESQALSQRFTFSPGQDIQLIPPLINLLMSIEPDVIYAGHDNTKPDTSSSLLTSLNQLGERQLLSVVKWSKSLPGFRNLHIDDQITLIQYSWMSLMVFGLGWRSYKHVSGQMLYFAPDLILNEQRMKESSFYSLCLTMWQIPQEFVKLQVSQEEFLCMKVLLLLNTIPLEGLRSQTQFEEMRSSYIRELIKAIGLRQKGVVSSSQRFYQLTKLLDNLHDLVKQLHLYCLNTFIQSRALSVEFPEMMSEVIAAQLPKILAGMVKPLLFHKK

[3] = test system: récepteur de l'oestradiol; settings: cited from earlier work
[4] = target: T2, récepteurs nucléaires de l'oestradiol d'utérus de brebis (Ovis aries, UniProt A0ACI6Q0N8); assay: Irreversible binding to nuclear estradiol receptors in ewe uterus nuclear extract (exchange with 10 nM tritiated estradiol, protamine sulfate precipitation)
T2 sequence (A0ACI6Q0N8 1-596): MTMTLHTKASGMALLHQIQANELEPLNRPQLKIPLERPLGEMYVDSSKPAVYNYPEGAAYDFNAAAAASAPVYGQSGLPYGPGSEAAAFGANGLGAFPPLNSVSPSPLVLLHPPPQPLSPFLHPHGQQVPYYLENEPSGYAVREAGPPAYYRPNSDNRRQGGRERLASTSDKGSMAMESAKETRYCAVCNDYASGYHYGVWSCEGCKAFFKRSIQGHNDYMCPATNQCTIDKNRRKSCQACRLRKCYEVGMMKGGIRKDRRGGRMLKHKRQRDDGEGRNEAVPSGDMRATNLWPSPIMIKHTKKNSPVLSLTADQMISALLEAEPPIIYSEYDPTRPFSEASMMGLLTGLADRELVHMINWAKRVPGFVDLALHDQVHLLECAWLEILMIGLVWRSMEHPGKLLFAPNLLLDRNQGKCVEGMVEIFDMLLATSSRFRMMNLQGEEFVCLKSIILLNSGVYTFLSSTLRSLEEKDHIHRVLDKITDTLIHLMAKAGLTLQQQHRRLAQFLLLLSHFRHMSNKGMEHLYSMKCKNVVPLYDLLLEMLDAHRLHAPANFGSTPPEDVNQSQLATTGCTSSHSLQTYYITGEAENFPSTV
Description: La nature irréversible de l'intéraction du composé 12 avec le récepteur a été démontrée en incubant un extrait nucléaire d'utérus de brebis en présence de molarités variables de complexe 12. A la fin du temps . d'incubation, l'hormone libre, présente dans le milieu, est éliminée par traitement au charbon dextran. Les fractions d'extrait nucléaire sont ensuite incubées à 20°C pendant 17 h. en présence de 10 nM d'oestradiol tritié. La fraction d'oestradiol tritiée liée (qui représente la quantité de récepteur qui n'a pas été marquée de façon covalente) est déterminée après précipitation des fractions liées au sulfate de protamine (9b). Les résultats sont rassemblés dans le tableau suivant

[5] = target: T3, Récepteur des glucocorticoîdes (Homo sapiens, UniProt P04150); settings: whole cells; cited from earlier work
T3 sequence (P04150 1-777): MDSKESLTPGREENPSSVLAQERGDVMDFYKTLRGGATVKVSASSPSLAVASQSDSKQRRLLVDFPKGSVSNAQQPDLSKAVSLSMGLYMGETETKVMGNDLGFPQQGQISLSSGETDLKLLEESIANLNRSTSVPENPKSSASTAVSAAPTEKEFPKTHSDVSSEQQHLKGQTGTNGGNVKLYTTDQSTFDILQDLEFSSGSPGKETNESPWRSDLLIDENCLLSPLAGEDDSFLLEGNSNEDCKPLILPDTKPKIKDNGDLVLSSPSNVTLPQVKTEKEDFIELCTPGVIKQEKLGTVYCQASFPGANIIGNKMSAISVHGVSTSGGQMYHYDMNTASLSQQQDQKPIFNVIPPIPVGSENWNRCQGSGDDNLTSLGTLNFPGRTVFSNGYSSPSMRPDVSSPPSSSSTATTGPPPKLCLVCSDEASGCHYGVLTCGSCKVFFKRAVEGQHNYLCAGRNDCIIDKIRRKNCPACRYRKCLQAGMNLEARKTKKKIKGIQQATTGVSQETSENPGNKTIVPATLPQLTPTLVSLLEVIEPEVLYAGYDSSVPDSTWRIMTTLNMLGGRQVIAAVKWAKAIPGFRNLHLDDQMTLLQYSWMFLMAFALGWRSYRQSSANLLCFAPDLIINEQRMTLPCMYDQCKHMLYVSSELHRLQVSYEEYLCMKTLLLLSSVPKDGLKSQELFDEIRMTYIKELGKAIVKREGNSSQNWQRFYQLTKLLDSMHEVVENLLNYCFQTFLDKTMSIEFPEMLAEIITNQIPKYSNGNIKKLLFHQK

C[C@]12CC[C@@H]3c4ccc(O)cc4CC[C@H]3[C@@H]1CC[C@@]2(O)c1ccccc1 [[17α-C6H5]-17β-oestradiol]
affinité relative de liaison (A.R.L) [1]: 25%

CCC(=O)[C@@]1(C)CC[C@H]2[C@@H]3CCC4=CC(=O)CCC4=C3CC[C@@]21C [compound 1, R5020]
Marquage [2]: 15%

C[C@]12C[C@H](CCl)[C@@H]3c4ccc(O)cc4CC[C@H]3[C@@H]1CC[C@@H]2O [compound 6, chlorométhyl 11β-oestradiol]
marqueur d'affinité du récepteur de l'oestradiol [3]: n'en étant pas un

CC12CCC3c4ccc(O)cc4CCC3C1CCC2(O)[c-]1cccc1.[Fe+2].c1cc[cH-]c1 (stereo not drawn) [compound 12, 17α-Ferrocényl-17β-oestradiol]
% d'inhibition de la liaison de l'oestradiol ([4]; incubation molarity 2 nM): 50% | % d'inhibition de la liaison de l'oestradiol ([4]; incubation molarity 5 nM): 71% | % d'inhibition de la liaison de l'oestradiol ([4]; incubation molarity 10 nM): 81% | affinité relative de liaison (A.R.L) [1]: 13%

Dexaméthasone-mésylate-21 [compound 2]
liaison non-spécifique [5]: Taux élevé de liaison non-spécifique

azide de l'hexestrol [compound 3]
efficacité d'inactivation ([3]; photochemical route): 10-15%

From patent EP0345153A1, “Affinity markers for hormonal steroid receptors, their use in hormonoradio therapy and as imaging agents of hormone-dependent cancers” (LA REGION WALLONNE, priority 1988, dated 1989)
